Test results as given in ChEMBL document CHEMBL1146977, “Taxoid from the needles of the Himalayan yew Taxus wallichiana with cytotoxic and immunomodulatory activities” (Bioorg Med Chem Lett, 2006).
Values after ≈ are worked out from the molar mass of the structure shown.

Legend:
Assay type in all cases: functional, cell-based
MCF7 [1] = assay: Cytotoxicity against human MCF7 cells by MTT assay
COLO 320DM [2] = assay: Cytotoxicity against human Colo320DM cells by MTT assay
WRL68 [3] = assay: Cytotoxicity against human WRL68 cells by clonogenic assay
COLO 320DM [4] = assay: Cytotoxicity against human Colo320DM cells by clonogenic assay
PA-1 [5] = assay: Cytotoxicity against human PA1 cells by clonogenic assay
KB [6] = assay: Cytotoxicity against human KB cells by clonogenic assay
PA-1 [7] = assay: Cytotoxicity against human PA1 cells by MTT assay
WRL68 [8] = assay: Cytotoxicity against human WRL68 cells by MTT assay
KB [9] = assay: Cytotoxicity against human KB cells by MTT assay
MCF7 [10] = assay: Cytotoxicity against human MCF7 cells by clonogenic assay

| Structure (SMILES) | IC50 (MCF7 [1]) [µg/mL] | IC50 (COLO 320DM [2]) [µg/mL] | IC50 (WRL68 [3]) [µg/mL] | IC50 (COLO 320DM [4]) [µg/mL] | IC50 (PA-1 [5]) [µg/mL] | IC50 (KB [6]) [µg/mL] | IC50 (PA-1 [7]) [µg/mL] | IC50 (WRL68 [8]) [µg/mL] | IC50 (KB [9]) [µg/mL] | IC50 (MCF7 [10]) [µg/mL] |
| --- | --- | --- | --- | --- | --- | --- | --- | --- | --- | --- |
| C=C1[C@H]2C[C@]3(O)C[C@H](OC(C)=O)C(C)=C([C@@H](OC(C)=O)[C@H](OC(C)=O)[C@]2(C)[C@@H](OC(C)=O)C[C@@H]1O)C3(C)C | 0.18 (≈ 0.335 µM) | 0.23 (≈ 0.429 µM) | 12.8 (≈ 23.9 µM) | 1.82 (≈ 3.39 µM) | 0.85 (≈ 1.58 µM) | 1.23 (≈ 2.29 µM) | 0.01 (≈ 0.0186 µM) | 1.65 (≈ 3.07 µM) | 0.04 (≈ 0.0745 µM) | 8.42 (≈ 15.7 µM) |
| CC[C@]1(O)C[C@H]2CN(CCc3c([nH]c4ccccc34)[C@@](C(=O)OC)(c3cc4c(cc3OC)N(C=O)[C@H]3[C@@](O)(C(=O)OC)[C@H](OC(C)=O)[C@]5(CC)C=CCN6CC[C@]43[C@@H]65)C2)C1 [VINCRISTINE] | 0.05 (≈ 0.0606 µM) | 0.46 (≈ 0.558 µM) | 8.5 (≈ 10.3 µM) | 1.5 (≈ 1.82 µM) | 1 (≈ 1.21 µM) | 0.25 (≈ 0.303 µM) | 0.01 (≈ 0.0121 µM) | 1.42 (≈ 1.72 µM) | 0.02 (≈ 0.0242 µM) | 0.15 (≈ 0.182 µM) |
| CC[C@]1(O)C[C@@H]2CN(CCc3c([nH]c4ccccc34)[C@@](C(=O)OC)(c3cc4c(cc3OC)N(C)[C@H]3[C@@](O)(C(=O)OC)[C@H](OC(C)=O)[C@]5(CC)C=CCN6CC[C@]43[C@@H]65)C2)C1 [VINBLASTINE] | 0.02 (≈ 0.0247 µM) | 0.52 (≈ 0.641 µM) | 2.6 (≈ 3.21 µM) | 1.6 (≈ 1.97 µM) | 1.15 (≈ 1.42 µM) | 0.46 (≈ 0.567 µM) | 0.025 (≈ 0.0308 µM) | 1.45 (≈ 1.79 µM) | 0.046 (≈ 0.0567 µM) | 0.22 (≈ 0.271 µM) |
